Patent publication US20240285598A1 (priority 2021, published 2024)
Like-named read-outs stand apart in the source and are kept apart here.

Tested on: SARS-CoV-2
Assay: Antiviral assay (viral RNA in culture supernatant by RT-qPCR)
[1] = Severe acute respiratory syndrome coronavirus 2, 72 h, read-out: CC50 (Antiviral Data), MOI of 0.05, 72 h, 96-well plate, RT-qPCR of viral RNA
[2] = read-out: CC50 (Antiviral Data), MOI of 0.05, 72 h, 96-well plate, RT-qPCR of viral RNA

CCCN(CCC)[C@@H]1C[C@@H](C(=O)NC(C#N)C[C@@H]2CCNC2=O)N(C(=O)[C@@H](NC(=O)C(F)(F)F)C(C)(C)C)C1 (stereo partly drawn) gave a CC50 [1] greater than 100 µM.
Work on CC(C)(C)OC(=O)N1C[C@H]2[C@@H]([C@H]1C(=O)N[C@H](C#N)C[C@@H]1CCNC1=O)C2(C)C yielded a CC50 [1] greater than 100 µM.
In the case of CCCN(CCC)[C@@H]1C[C@@H](C(=O)NC(C#N)C[C@@H]2CCNC2=O)N(C(=O)[C@@H](NC(=O)OC(C)(C)C)C(C)(C)C)C1 (stereo partly drawn), the CC50 [1] is reported as 10.1 to 100 µM.
CCCO[C@@H]1C[C@@H](C(=O)NC(C#N)C[C@@H]2CCNC2=O)N(C(=O)[C@@H](NC(=O)NC(C)(C)C)C(C)(C)C)C1 (stereo partly drawn) gave a CC50 [1] greater than 100 µM.
Molecule CC(C)(C)NC(=O)N[C@H](C(=O)N1C[C@H]2[C@@H]([C@H]1C(=O)NC(C#N)C[C@@H]1CCNC1=O)C2(C)C)C(C)(C)C (stereo partly drawn) has a CC50 [1] greater than 100 µM.
CCCN(CCC)[C@@H]1C[C@@H](C(=O)NC(C#N)C[C@@H]2CCNC2=O)N(C(=O)[C@@H](NC(=O)NC(C)(C)C)C(C)(C)C)C1 (stereo partly drawn) showed a CC50 [1] greater than 100 µM.
Work on CC(C)(C)[C@H](NC(=O)C(F)(F)F)C(=O)N1C[C@H](N2CCC(F)(F)CC2)C[C@H]1C(=O)NC(C#N)C[C@@H]1CCNC1=O (stereo partly drawn) yielded a CC50 [1] greater than 100 µM.
CCCN(CCC)[C@@H]1C[C@@H](C(=O)NC(C#N)C[C@@H]2CCNC2=O)N(C(=O)[C@@H](NC(=O)OCc2ccccc2)C(C)(C)C)C1 (stereo partly drawn) gave a CC50 [1] of 10.1 to 100 µM.
For CCCN(CCC)[C@@H]1C[C@@H](C(=O)NC(C#N)C[C@@H]2CCNC2=O)N(C(=O)[C@@H](NC(=O)OCc2ccccn2)C(C)(C)C)C1 (stereo partly drawn), the CC50 [1] was greater than 100 µM.
For CCCN(CCC)[C@@H]1C[C@@H](C(=O)NC(C#N)C[C@@H]2CCNC2=O)N(C(=O)[C@@H](NC(=O)OCc2cccnc2)C(C)(C)C)C1 (stereo partly drawn), the CC50 [1] was greater than 100 µM.
Molecule CCCN(CCC)[C@@H]1C[C@@H](C(=O)NC(C#N)C[C@@H]2CCNC2=O)N(C(=O)[C@@H](NC(=O)OCc2ccncc2)C(C)(C)C)C1 (stereo partly drawn) has a CC50 [1] greater than 100 µM.
For CCCN(CCC)[C@@H]1C[C@@H](C(=O)NC(C#N)C[C@@H]2CCNC2=O)N(C(=O)C(C)(C)NC(=O)C(F)(F)F)C1 (stereo partly drawn), the CC50 [1] was greater than 100 µM.
Molecule CCCN(CCC)[C@@H]1C[C@@H](C(=O)NC(C#N)C[C@@H]2CCNC2=O)N(C(=O)C(C)(C)NC(=O)OCc2ccccc2)C1 (stereo partly drawn) has a CC50 [1] greater than 100 µM.
CC(C)(NC(=O)C(F)(F)F)C(=O)N1C[C@H]2[C@@H]([C@H]1C(=O)N[C@H](C#N)C[C@@H]1CCNC1=O)C2(C)C was tested, and the CC50 [1] was greater than 100 µM.
With CC(C)(C)[C@H](NC(=O)OCc1ccccc1)C(=O)N1CCC(F)(F)C[C@H]1C(=O)NC(C#N)C[C@@H]1CCNC1=O (stereo partly drawn) the CC50 [1] was 10.1 to 100 µM.
In the case of CC(C)(C)[C@H](NC(=O)OCc1ccncc1)C(=O)N1C[C@H]2[C@@H]([C@H]1C(=O)N[C@H](C#N)C[C@@H]1CCNC1=O)C2(C)C, the CC50 [1] is reported as 1 to 10 µM.
CC(C)(C)C(NC(=O)OCc1ccncc1)C(=O)N1C[C@H]2[C@@H]([C@H]1C(=O)N[C@H](C#N)C[C@@H]1CCCNC1=O)C2(C)C (stereo partly drawn) gave a CC50 [1] of 1 to 10 µM.
Molecule CCCN(CCC)[C@@H]1C[C@@H](C(=O)NC(C#N)C[C@@H]2CCNC2=O)N(C(=O)[C@@H](NC(=O)C(Cl)(Cl)Cl)C(C)(C)C)C1 (stereo partly drawn) has a CC50 [1] greater than 100 µM.
CCCO[C@@H]1C[C@@H](C(=O)NC(C#N)C[C@@H]2CCNC2=O)N(C(=O)[C@@H](NC(=O)OC(C)(C)C)C(C)(C)C)C1 (stereo partly drawn) was tested, and the CC50 [1] was 10.1 to 100 µM.
Molecule CCCO[C@@H]1C[C@@H](C(=O)NC(C#N)C[C@@H]2CCNC2=O)N(C(=O)[C@@H](NC(=O)OCc2ccccc2)C(C)(C)C)C1 (stereo partly drawn) has a CC50 [1] of 1 to 10 µM.
CC(C)O[C@@H]1C[C@@H](C(=O)NC(C#N)C[C@H]2CCNC2=O)N(C(=O)[C@@H](NC(=O)OCc2ccccn2)C(C)(C)C)C1 (stereo partly drawn) showed a CC50 [1] greater than 100 µM.
With CC(C)O[C@@H]1C[C@@H](C(=O)NC(C#N)C[C@H]2CCNC2=O)N(C(=O)[C@@H](NC(=O)OCc2cccnc2)C(C)(C)C)C1 (stereo partly drawn) the CC50 [1] was greater than 100 µM.
In the case of CC(C)O[C@@H]1C[C@@H](C(=O)NC(C#N)C[C@H]2CCNC2=O)N(C(=O)[C@@H](NC(=O)OC(C)(C)C)C(C)(C)C)C1 (stereo partly drawn), the CC50 [1] is reported as 10.1 to 100 µM.
CC(C)O[C@@H]1C[C@@H](C(=O)NC(C#N)C[C@H]2CCNC2=O)N(C(=O)[C@@H](NC(=O)C(O)c2ccco2)C(C)(C)C)C1 (stereo partly drawn) gave a CC50 [1] greater than 100 µM.
CC(C)O[C@@H]1C[C@@H](C(=O)NC(C#N)C[C@H]2CCNC2=O)N(C(=O)[C@@H](NC(=O)OCc2ccncc2)C(C)(C)C)C1 (stereo partly drawn) showed a CC50 [1] greater than 100 µM.
CC(C)O[C@@H]1C[C@@H](C(=O)NC(C#N)C[C@H]2CCNC2=O)N(C(=O)[C@@H](NC(=O)C(F)(F)F)C(C)(C)C)C1 (stereo partly drawn) showed a CC50 [1] of 10.1 to 100 µM.
With CCCN(CCC)[C@@H]1C[C@@H](C(=O)N[C@H](C#N)Cc2cc(C)n[nH]2)N(C(=O)C(NC(=O)C(F)(F)F)C(C)(C)C)C1 (stereo partly drawn) the CC50 [1] was greater than 100 µM.
Cc1cc(C[C@@H](C#N)NC(=O)[C@@H]2[C@@H]3[C@H](CN2C(=O)[C@H](NC(=O)C(F)(F)F)C(C)(C)C)C3(C)C)[nH]n1 was tested, and the CC50 [1] was 10.1 to 100 µM.
CCCN(CCC)[C@@H]1C[C@@H](C(=O)NC(C#N)Cc2cc(OS(=O)(=O)c3ccc(C)cc3)n(S(=O)(=O)c3ccc(C)cc3)n2)N(C(=O)[C@@H](NC(=O)C(F)(F)F)C(C)(C)C)C1 (stereo partly drawn) gave a CC50 [1] greater than 100 µM.
Cc1cc(C[C@@H](C#N)NC(=O)[C@@H]2[C@@H]3[C@H](CN2C(=O)[C@H](NC(=O)C2C4CO[C@@H]5OC[C@@H]2C5C4)C(C)(C)C)C3(C)C)[nH]n1 (stereo partly drawn) was tested, and the CC50 [1] was greater than 100 µM.
In the case of CC(C)Cc1cc(C[C@@H](C#N)NC(=O)[C@@H]2[C@@H]3[C@H](CN2C(=O)[C@H](NC(=O)C(F)(F)F)C(C)(C)C)C3(C)C)[nH]n1, the CC50 [1] is reported as greater than 100 µM.
For CC(C)(C)[C@@H](NC(=O)C(F)(F)F)C(=O)N1C[C@H]2[C@@H]([C@H]1C(=O)N[C@H](C#N)Cc1cc(CO)n[nH]1)C2(C)C, the CC50 [1] was greater than 100 µM.
Molecule CCCN(CCC)[C@@H]1C[C@@H](C(=O)NC(C#N)Cc2cn[nH]c2O)N(C(=O)[C@@H](NC(=O)C(F)(F)F)C(C)(C)C)C1 (stereo partly drawn) has a CC50 [1] greater than 100 µM.
Work on CC(C)(C)[C@H](NC(=O)C(F)(F)F)C(=O)N1C[C@H]2[C@@H]([C@H]1C(=O)NC(C#N)Cc1cn[nH]c1O)C2(C)C (stereo partly drawn) yielded a CC50 [1] greater than 100 µM.
Work on CC(C)(C)C(=O)N[C@H](C(=O)N1C[C@H]2[C@@H]([C@H]1C(=O)N[C@H](C#N)C[C@@H]1CCNC1=O)C2(C)C)C(C)(C)C yielded a CC50 [1] of 1 to 10 µM.
With CC(C)(C)[C@H](NC(=O)C(Cl)(Cl)Cl)C(=O)N1C[C@H]2[C@@H]([C@H]1C(=O)N[C@H](C#N)C[C@@H]1CCNC1=O)C2(C)C the CC50 [1] was greater than 100 µM.
CC(C)(C)[C@H](NC(=O)C(F)(F)F)C(=O)N1Cc2ccccc2CC1C(=O)N[C@@H](C#N)C[C@@H]1CCNC1=O (stereo partly drawn) was tested, and the CC50 [1] was greater than 100 µM.
Work on CC(C)(C)[C@H](NC(=O)C(Cl)(Cl)Cl)C(=O)N1C[C@H]2[C@@H]([C@H]1C(=O)N[C@H](C#N)C[C@@H]1CCCNC1=O)C2(C)C yielded a CC50 [1] greater than 100 µM.
Molecule CC(C)(C)[C@H](NC(=O)C(F)(F)F)C(=O)N1CCN(Cc2ccccc2)CC1C(=O)N[C@@H](C#N)C[C@@H]1CCNC1=O (stereo partly drawn) has a CC50 [1] greater than 100 µM.
Work on CC(C)(C)OC(=O)N[C@H](C(=O)N1CCN(C(=O)OC(C)(C)C)CC1C(=O)N[C@@H](C#N)C[C@@H]1CCNC1=O)C(C)(C)C (stereo partly drawn) yielded a CC50 [1] greater than 100 µM.
CC(C)(C)OC(=O)N[C@H](C(=O)N1CCN(C(=O)OC(C)(C)C)C[C@H]1C(=O)NC(C#N)CC1CCNC1=O)C(C)(C)C (stereo partly drawn) showed a CC50 [1] greater than 100 µM.
For CC(C)(C)OC(=O)N[C@H](C(=O)N1Cc2ccccc2C[C@H]1C(=O)NC(C#N)CC1CCNC1=O)C(C)(C)C (stereo partly drawn), the CC50 [1] was greater than 100 µM.
CC(C)(C)[C@H](NC(=O)C(F)(F)F)C(=O)N1C[C@H]2[C@@H]([C@H]1C(=O)N[C@H](C#N)C[C@@H]1CCNC1=O)C2(C)C [drawing 61] was tested, and the CC50 [2] was 10.1 to 100 µM.
With CC(C)(C)[C@H](NC(=O)C(F)(F)F)C(=O)N1C[C@H]2[C@@H]([C@H]1C(=O)N[C@H](C#N)C[C@@H]1CCCNC1=O)C2(C)C [drawing 62] the CC50 [2] was 10.1 to 100 µM.
Work on CC(C)(C)[C@H](NC(=O)c1ccccc1)C(=O)N1C[C@H]2[C@@H]([C@H]1C(=O)N[C@H](C#N)C[C@@H]1CCNC1=O)C2(C)C [drawing 68] yielded a CC50 [1] of 10.1 to 100 µM.
With CC(C)(C)[C@H](NC(=O)C(F)(F)F)C(=O)N1C[C@H]2[C@@H]([C@H]1C(=O)N[C@H](C#N)C[C@@H]1CCNC1=O)C2(C)C [drawing 94] the CC50 [2] was greater than 100 µM.
CC(C)(C)[C@H](NC(=O)C(F)(F)F)C(=O)N1C[C@H]2[C@@H]([C@H]1C(=O)N[C@H](C#N)C[C@@H]1CCCNC1=O)C2(C)C [drawing 95] showed a CC50 [2] of 1 to 10 µM.
Work on CC(C)(C)[C@H](NC(=O)c1ccccc1)C(=O)N1C[C@H]2[C@@H]([C@H]1C(=O)N[C@H](C#N)C[C@@H]1CCNC1=O)C2(C)C [drawing 101] yielded a CC50 [2] of 10.1 to 100 µM.
